From ChEMBL document CHEMBL1201862, “PubChem BioAssay data set” (2004)
The source made the active and inactive calls.

Experiments:
[1] = target: E3 ubiquitin-protein ligase Mdm2 (Homo sapiens, UniProt Q00987); test: MDM2-luc reporter signal enhancers, multi-concentration potency testing, MDM2 ubiquitin-protein ligase inhibitor program, whole-cell format, luminescence detection, 384-well microplate (AID 1394); assay type: functional;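 note: MDM2 E3 inhibitors raise luminescence so EC50 is for signal enhancement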
E3 ubiquitin-protein ligase Mdm2, sequence (Q00987 whole entry): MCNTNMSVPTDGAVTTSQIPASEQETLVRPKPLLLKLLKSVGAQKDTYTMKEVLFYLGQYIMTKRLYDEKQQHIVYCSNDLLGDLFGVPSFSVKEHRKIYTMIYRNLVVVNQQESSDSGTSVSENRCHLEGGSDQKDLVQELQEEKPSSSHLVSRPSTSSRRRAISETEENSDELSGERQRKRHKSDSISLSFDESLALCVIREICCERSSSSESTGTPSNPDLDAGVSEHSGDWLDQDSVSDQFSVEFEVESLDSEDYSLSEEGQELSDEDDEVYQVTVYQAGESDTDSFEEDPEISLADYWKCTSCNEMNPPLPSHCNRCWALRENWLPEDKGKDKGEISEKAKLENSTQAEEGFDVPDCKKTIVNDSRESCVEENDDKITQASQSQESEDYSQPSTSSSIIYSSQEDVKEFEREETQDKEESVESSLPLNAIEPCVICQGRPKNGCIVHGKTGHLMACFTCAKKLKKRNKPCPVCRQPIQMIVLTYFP

[2] = system: HEK293; test: EBV LMP1 TES2 canonical NF-kB signalling blockers – cell-based, HEK293, luciferase, cherry-pick, dose response (AID 588343); assay type: functional; settings: Homo sapiens
[3] = target: NAD-dependent protein deacylase sirtuin-5, mitochondrial (Homo sapiens, UniProt Q9NXA8); test: sirtuin-5 deacylation blockers, concentration series – biochemical, fluorescence imaging, cherry-pick, set 5, dose response (AID 720591);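 note: desuccinylation of succinyl peptide AMC substrate read as fluorescence after trypsin release; potency of inhibitors that lower fluorescence and may act on trypsin instead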
NAD-dependent protein deacylase sirtuin-5, mitochondrial, sequence (Q9NXA8 whole entry): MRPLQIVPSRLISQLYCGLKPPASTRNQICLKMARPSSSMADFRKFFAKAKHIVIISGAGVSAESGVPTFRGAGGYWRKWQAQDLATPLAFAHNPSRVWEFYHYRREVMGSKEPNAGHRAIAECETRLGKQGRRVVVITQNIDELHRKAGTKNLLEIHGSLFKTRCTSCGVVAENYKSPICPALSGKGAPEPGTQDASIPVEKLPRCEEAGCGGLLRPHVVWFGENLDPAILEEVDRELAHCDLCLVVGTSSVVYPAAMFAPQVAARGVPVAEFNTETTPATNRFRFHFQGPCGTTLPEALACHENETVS

[4] = target: Melanin-concentrating hormone receptor 1 (Homo sapiens, UniProt Q99705); test: Fluorescence-based counterscreen for antagonists of the G-protein coupled receptor 7 (GPR7): cell-based high throughput dose response assay to identify antagonists of the melanin-concentrating hormone receptor 1 (MCHR1).; assay type: functional
Melanin-concentrating hormone receptor 1, sequence (Q99705 whole entry): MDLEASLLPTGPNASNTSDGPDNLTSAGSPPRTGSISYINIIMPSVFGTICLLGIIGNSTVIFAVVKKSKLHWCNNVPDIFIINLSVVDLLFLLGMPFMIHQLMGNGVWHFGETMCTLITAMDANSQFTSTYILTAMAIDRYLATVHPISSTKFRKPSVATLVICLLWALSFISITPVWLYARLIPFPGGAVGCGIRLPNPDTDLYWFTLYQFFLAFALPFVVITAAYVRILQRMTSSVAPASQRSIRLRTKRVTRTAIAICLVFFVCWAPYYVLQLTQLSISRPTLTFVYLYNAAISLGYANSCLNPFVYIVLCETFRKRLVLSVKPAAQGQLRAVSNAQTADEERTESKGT

[5] = target: T1, Neuropeptides B/W receptor type 1 (Homo sapiens, UniProt P48145); test: Fluorescence-based dose response cell-based high throughput screening assay to identify antagonists of the G-protein coupled receptor 7 (GPR7). [Related pubchem assays: 1952 (Screening assay (GPR7 antagonists).), 1880 (Summary AID.)]; assay type: functional
T1 sequence (P48145 whole entry): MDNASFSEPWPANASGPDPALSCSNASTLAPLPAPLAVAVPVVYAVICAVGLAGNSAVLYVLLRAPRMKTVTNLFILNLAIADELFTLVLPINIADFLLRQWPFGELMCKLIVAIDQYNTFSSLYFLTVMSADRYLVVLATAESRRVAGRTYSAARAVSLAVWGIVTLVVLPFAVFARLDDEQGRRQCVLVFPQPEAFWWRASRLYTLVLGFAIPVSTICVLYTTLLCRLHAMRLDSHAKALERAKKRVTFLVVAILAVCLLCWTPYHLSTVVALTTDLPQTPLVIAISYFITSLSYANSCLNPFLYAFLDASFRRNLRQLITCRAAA

[6] = OVCAR8 cell viability loss – plate reader, dry powder samples, PAX8 project, dose response (AID 743197); assay type: functional, cell-based; settings: OVCAR-8
[7] = A2780 cell killing – plate reader, dry powder samples, cytotoxicity control, dose response (AID 743046); assay type: functional, cell-based
[8] = target: Paired box protein Pax-8 (Homo sapiens, UniProt Q06710); test: PAX8 transcriptional activity inhibition in RMG-I – RMG-I cells, luciferase, cherry-pick, dose response (AID 687027); assay type: functional, cell-based;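 note: luciferase reporter driven by Pax8 target thyroperoxidase promoter measured by SteadyGlo luminescence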
Paired box protein Pax-8, sequence (Q06710 whole entry): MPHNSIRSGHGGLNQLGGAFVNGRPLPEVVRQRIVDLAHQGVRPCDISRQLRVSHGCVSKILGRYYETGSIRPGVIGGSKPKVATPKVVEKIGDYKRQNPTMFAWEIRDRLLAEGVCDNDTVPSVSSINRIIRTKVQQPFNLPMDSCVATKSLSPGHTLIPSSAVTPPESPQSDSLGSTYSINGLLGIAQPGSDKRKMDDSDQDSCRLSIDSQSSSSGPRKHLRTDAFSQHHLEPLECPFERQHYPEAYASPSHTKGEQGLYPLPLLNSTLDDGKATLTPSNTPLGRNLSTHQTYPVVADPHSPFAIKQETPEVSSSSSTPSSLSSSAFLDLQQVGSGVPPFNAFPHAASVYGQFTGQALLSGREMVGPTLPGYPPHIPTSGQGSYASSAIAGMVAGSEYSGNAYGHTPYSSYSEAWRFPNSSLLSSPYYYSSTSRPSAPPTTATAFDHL

[9] = toxicity to human hepatoma HepG2 cells – cell-based, cherry-picked samples, cytotoxicity control, dose response (AID 1159577); assay type: functional
[10] = P. falciparum Dd2 growth inhibitors, dose response, SYBR Green, cherry-picked samples (AID 1159567); assay type: functional, cell-based
[11] = target: Disintegrin and metalloproteinase domain-containing protein 17 (Homo sapiens, UniProt P78536); test: inhibition of ADAM17 substrate cleavage – biochemical, quenched FRET substrate, counter-screen for ADAM10 exosite inhibitor project, dose response (AID 743253)
Disintegrin and metalloproteinase domain-containing protein 17, sequence (P78536 whole entry, the tested form may be a part): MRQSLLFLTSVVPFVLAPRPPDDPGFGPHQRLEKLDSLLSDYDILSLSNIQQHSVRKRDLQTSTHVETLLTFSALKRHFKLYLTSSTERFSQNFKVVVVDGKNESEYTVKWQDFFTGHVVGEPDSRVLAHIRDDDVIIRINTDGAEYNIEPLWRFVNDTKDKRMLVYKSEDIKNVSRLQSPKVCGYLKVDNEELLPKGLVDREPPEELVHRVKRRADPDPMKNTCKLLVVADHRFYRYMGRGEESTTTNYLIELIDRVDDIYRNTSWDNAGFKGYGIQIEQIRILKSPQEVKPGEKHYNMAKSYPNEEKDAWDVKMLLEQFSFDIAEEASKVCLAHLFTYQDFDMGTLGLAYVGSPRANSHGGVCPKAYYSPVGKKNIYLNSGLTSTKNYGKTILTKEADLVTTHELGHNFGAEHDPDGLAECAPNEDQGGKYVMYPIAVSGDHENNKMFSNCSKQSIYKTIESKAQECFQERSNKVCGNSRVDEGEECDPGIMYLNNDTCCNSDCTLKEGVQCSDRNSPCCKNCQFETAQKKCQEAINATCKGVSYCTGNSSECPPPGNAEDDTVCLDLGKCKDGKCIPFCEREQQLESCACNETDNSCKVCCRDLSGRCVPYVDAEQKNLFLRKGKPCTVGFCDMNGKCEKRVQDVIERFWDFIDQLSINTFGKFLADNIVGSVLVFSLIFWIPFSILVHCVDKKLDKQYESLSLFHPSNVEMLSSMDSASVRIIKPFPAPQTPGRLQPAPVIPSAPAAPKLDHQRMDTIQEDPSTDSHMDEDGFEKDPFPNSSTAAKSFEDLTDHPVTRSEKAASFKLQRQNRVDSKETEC

[12] = system: Streptococcus; test: GAS UMAA2166 growth inhibition – luminescence, BacTiterGlo, counter-screen for streptokinase expression inhibitor project, dose response (AID 1915); assay type: functional, organism-based;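 note: potency for reduction of bacterial viability or growth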
[13] = target: T2, Streptokinase A (Streptococcus pyogenes serotype M1, UniProt P10520); test: viability-normalized secreted streptokinase activity reduction – plasminogen activation absorbance, OD405, dose response (AID 1914); assay type: functional, Streptococcus pyogenes M1 GAS;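 note: secreted streptokinase activity via plasminogen activation per viability signal from cell pellet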
T2 sequence (P10520 whole entry): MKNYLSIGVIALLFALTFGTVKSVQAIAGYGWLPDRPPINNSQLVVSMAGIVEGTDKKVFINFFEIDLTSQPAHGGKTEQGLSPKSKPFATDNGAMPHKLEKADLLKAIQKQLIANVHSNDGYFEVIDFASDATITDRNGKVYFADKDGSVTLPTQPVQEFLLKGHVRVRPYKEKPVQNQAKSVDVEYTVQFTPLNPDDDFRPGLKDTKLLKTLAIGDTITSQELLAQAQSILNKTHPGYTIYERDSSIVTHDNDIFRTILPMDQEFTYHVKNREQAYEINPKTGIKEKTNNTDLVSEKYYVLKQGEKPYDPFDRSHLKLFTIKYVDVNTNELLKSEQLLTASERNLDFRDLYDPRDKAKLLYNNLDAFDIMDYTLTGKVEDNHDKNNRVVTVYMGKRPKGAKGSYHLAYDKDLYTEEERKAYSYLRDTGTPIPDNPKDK

[14] = system: Streptococcus sp. 'group A'; test: Streptococcus pyogenes SK(-)GAS viability under kanamycin – luminescence, BacTiterGlo, confirmation, counter-screen for streptokinase expression inhibitor project, dose response (AID 1900); assay type: functional, organism-based
[15] = viability of HCT116 lacking mutant beta-catenin – cell-based, human colon tumor, dose response (AID 1045); assay type: functional;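 note: HCT116 colon tumor cells with beta catenin knocked out; cells exposed to compound for 60 hours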
[16] = viability of PTEN-deleted HCT116 cells – cell-based, HCT116 PTEN knockout, dose response (AID 1047); assay type: functional;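 note: HCT116 colon tumor cells with PTEN knocked out; cells exposed to compound for 60 hours before readout; potency for loss of cell viability measured by luminescence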
[17] = target: T3, Protein skinhead-1 (Caenorhabditis elegans, UniProt P34707); assay type: functional
T3 sequence (P34707 whole entry): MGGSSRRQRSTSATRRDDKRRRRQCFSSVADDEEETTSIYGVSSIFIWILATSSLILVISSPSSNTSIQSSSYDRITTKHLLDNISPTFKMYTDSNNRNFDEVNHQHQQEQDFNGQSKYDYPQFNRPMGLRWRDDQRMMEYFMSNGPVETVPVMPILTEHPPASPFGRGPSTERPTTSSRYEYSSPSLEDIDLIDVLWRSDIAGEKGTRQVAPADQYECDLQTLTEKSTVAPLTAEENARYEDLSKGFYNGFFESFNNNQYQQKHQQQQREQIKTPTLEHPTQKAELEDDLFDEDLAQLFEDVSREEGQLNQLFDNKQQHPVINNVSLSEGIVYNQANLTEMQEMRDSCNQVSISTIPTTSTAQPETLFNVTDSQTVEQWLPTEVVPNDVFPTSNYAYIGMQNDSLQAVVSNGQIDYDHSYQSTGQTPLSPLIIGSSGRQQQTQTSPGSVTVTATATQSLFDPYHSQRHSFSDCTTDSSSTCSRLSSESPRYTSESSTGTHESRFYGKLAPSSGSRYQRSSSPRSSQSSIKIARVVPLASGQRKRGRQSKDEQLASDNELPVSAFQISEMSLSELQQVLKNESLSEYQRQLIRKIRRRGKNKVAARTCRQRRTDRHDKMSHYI

In the case of `O=C(NC1CCCCC1)C(c1cccnc1)N(C(=O)c1ccc(Cl)nc1)C1CCCCC1` (centres undefined), the EC50 [1] is reported as 12.7 µM (not active).
For `CC(Sc1nc(-c2ccc(F)cc2)cs1)C(=O)N1c2ccccc2CC1C` (centres undefined), the AC50 [2] was 117 µM (active) and the AC50 [3] was > 30 µM (inactive).
In the case of `COc1ccc(C2CC2/C(=N/O)c2ccccn2)cc1` (centres undefined), the IC50 [4] is reported as > 43.8 µM (not active) and the IC50 [5] is reported as > 43.8 µM (not active).
For `C[C@@H]1CN([C@@H](C)CO)C(=O)c2cc(NC(=O)Nc3ccc(C(F)(F)F)cc3)ccc2O[C@@H](C)CCCCO[C@H]1CN(C)C(=O)c1ccccc1`, the AC50 [6] was > 70 µM (inactive), the AC50 [7] was 54.3 µM (active) and the AC50 [8] was 5.18 µM (active).
With `C=CCN(c1cccc(C(F)(F)F)c1)S(=O)(=O)c1cccc(C(=O)OCC(=O)NCCC)c1` the EC50 [1] was 277 µM (not active).
For `C[C@@H]1C=CCCO[C@]12C(=O)N(Cc1ccccc1C(F)(F)F)c1ccccc12`, the AC50 [3] was > 30 µM (inactive).
In the case of `COc1ccccc1NC(=O)N1CCCCN2[C@H](CO)[C@H](c3ccc(C#Cc4ccccc4)cc3)[C@H]2C1`, the AC50 [9] is reported as 8.11 µM (active) and the AC50 [10] is reported as 1.03 µM (active).
With `COc1ccc(S(=O)(=O)Nc2cc3c4c(oc3c3ccccc23)CC(C)(C)CC4=O)cc1` the IC50 [11] was > 69.5 µM (inactive), the EC50 [12] was 78.6 µM (active) and the EC50 [13] was 97 µM (active). For the same molecule, the EC50 [14] was 9.62 µM (active), the EC50 [15] was 26.6 µM (active) and the EC50 [16] was 20.1 µM (active). For the same molecule, the IC50 [17] was > 100 µM (inactive).
